Laboratory results taken from US12552772B2, “2-pyrazole anilines and related analogs for inhibiting YAP/TAZ-TEAD” (KATHOLIEKE UNIVERSITEIT LEUVEN, priority 2021, dated 2026).

Assays:
Assay type in all cases: cell-based
[1] = tested on: NCI-H226; test: Mesothelioma cell line proliferation assay (ATPlite), NCI-H226; conditions: Homo sapiens, 144 h; NCI-H226 cells, 6 days, ATPlite cell viability
Description: (§1) Mesothelioma cell lines, NCI-H226 and NCI-H2052 (all sourced from the ATCC cell culture collection) are plated in 96-well plates (Corning® 96 Well White Polystyrene Microplate clear flat bottom, white polystyrene (TC-Treated)), at 1500 cells/well in full medium (RPMI 1640 ATCC modification with L-glutamine, HEPES, Phenol Red, Sodium Pyruvate, High glucose, Low sodium bicarbonate and 10% fetal bovine serum). Cells are incubated overnight at 37° C. in an incubator with 5% CO2. Then compounds, dissolved in DMSO, are added in dose-response. Cells are incubated with compound dilutions for another 6 days at 37° C. in an incubator with 5% CO2. Cell viability is quantitated using the ATPlite kit (Perkin-Elmer) and the luminescence is read-out using an Envision instrument (Perkin-Elmer). The amount of relative light units produced using the ATPlite kit is used to calculated percent of inhibition.
(§2) The activities of example compounds tested are depicted in the table below. The activity ranges A, B and C refer to EC50 values in the mesothelioma cell line proliferation assay as described as follows: “A”: EC50<1 μM; “B”: 1 μM s EC50≤10 μM and “C”: EC50>10 μM. NT: not tested.

[2] = tested on: YAP/TAZ-TEAD transcription; test: Reporter gene assay for measuring the inhibition of YAP/TAZ-TEAD transcription (TEAD-responsive element luciferase reporter in Hek293T cells); conditions: Homo sapiens, HEK-293T, 24 hours incubation
Method in brief: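 Percent inhibition, scaled between vehicle (0%) and a positive control inhibitor (100%), came from SteadyLite luciferase signal after 24 h compound exposure at 37 °C/5% CO2. Cells: Hek293T transiently carrying a TEAD-responsive luciferase reporter; EC50 derived.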

[3] = tested on: H2452; test: Mesothelioma cell line proliferation assay, H2452; conditions: Homo sapiens, NCI-H2452; H2452 cells
[4] = tested on: NCI-H2052; test: Mesothelioma cell line proliferation assay (ATPlite), NCI-H2052; conditions: Homo sapiens, NCI-H2052, 144 h, NCI-H2052 cells, 6 days, ATPlite cell viability
Description: as §1, §2

Row | SMILES | EC50 [1] [nM] | EC50 [2] [nM] | EC50 [3] [nM] | EC50 [4] [nM]
1 | CNS(=O)(=O)CCNc1ccc(-c2ccc(F)cc2)cc1-c1ccn(Cc2cccnc2)n1 [compound 086, 2-((4′-fluoro-3-(1-(pyridin-3-ylmethyl)-1H-pyrazol-3-yl)-[1,1′-biphenyl]-4-yl)amino)-N-methylethane-1-sulfonamide] | 1000 to 10000 | < 1000 | > 10000 | –
2 | CNS(=O)(=O)CCNc1ccc(-c2ccc(C(F)(F)F)cc2)cc1-c1ccn(Cc2cccnc2)n1 [compound 087, N-methyl-2-((3-(1-(pyridin-3-ylmethyl)-1H-pyrazol-3-yl)-4′-(trifluoromethyl)-[1,1′-biphenyl]-4-yl)amino)ethane-1-sulfonamide] | 1000 to 10000 | < 1000 | > 10000 | –
3 | CNS(=O)(=O)CCNc1ccc(-c2ccc(F)c(F)c2)cc1-c1ccn(Cc2cccnc2)n1 [compound 093, 2-((3′,4′-difluoro-3-(1-(pyridin-3-ylmethyl)-1H-pyrazol-3-yl)-[1,1′-biphenyl]-4-yl)amino)-N-methylethane-1-sulfonamide] | < 1000 | < 1000 | > 10000 | –
4 | CNS(=O)(=O)CCNc1ccc(-c2ccccc2)cc1-c1ccn(Cc2ccccc2)n1 [compound 102, 2-((3-(1-benzyl-1H-pyrazol-3-yl)-[1,1′-biphenyl]-4-yl)amino)-N-methylethane-1-sulfonamide] | > 10000 | < 1000 | > 10000 | –
5 | CNS(=O)(=O)CCNc1ccc(-c2ccc(F)cc2)cc1-c1ccn(C)n1 [compound 117, 2-((4′-fluoro-3-(1-methyl-1H-pyrazol-3-yl)-[1,1′-biphenyl]-4-yl)amino)-N-methylethane-1-sulfonamide] | > 10000 | < 1000 | > 10000 | –
6 | C=CC(=O)NCc1ccc(-c2ccc(F)cc2)cc1-c1cn(C(F)F)nn1 [compound 185, N-((3-(1-(difluoromethyl)-1H-1,2,3-triazol-4-yl)-4′-fluoro-[1,1′-biphenyl]-4-yl)methyl)acrylamide] | < 1000 | < 1000 | – | 1000 to 10000
7 | C=CC(=O)NCc1ccc(-c2ccc(F)cc2)cc1-c1cnn(C)n1 [compound 187, N-((4′-fluoro-3-(2-methyl-2H-1,2,3-triazol-4-yl)-[1,1′-biphenyl]-4-yl)methyl)acrylamide] | < 1000 | < 1000 | – | 1000 to 10000
8 | C=CC(=O)NCc1ccc(-c2ccc(F)cc2)cc1-c1nnn(C)n1 [compound 188, N-((4′-fluoro-3-(2-methyl-2H-tetrazol-5-yl)-[1,1′-biphenyl]-4-yl)methyl)acrylamide] | < 1000 | < 1000 | – | < 1000
9 | C=CC(=O)NCc1ccc(-c2ccc(F)cc2)cc1-c1nnn(C(F)F)n1 [compound 190, N-((3-(2-(difluoromethyl)-2H-tetrazol-5-yl)-4′-fluoro-[1,1′-biphenyl]-4-yl)methyl)acrylamide] | < 1000 | < 1000 | – | 1000 to 10000
10 | C=CC(=O)NCc1ccc(-c2ccc(F)cc2)nc1-c1ccn(C)n1 [compound 193, N-((6-(4-fluorophenyl)-2-(1-methyl-1H-pyrazol-3-yl)pyridin-3-yl)methyl)acrylamide] | < 1000 | < 1000 | – | < 1000
11 | C=CC(=O)NCc1ccc(-c2ccccc2)nc1-c1ccn(C)n1 [compound 194, N-((2-(1-methyl-1H-pyrazol-3-yl)-6-phenylpyridin-3-yl)methyl)acrylamide] | < 1000 | < 1000 | – | < 1000
12 | C=CC(=O)NCc1ccc(-c2ccc(F)cc2)nc1-c1ccn(C(F)F)n1 [compound 198, N-((2-(1-(difluoromethyl)-1H-pyrazol-3-yl)-6-(4-fluorophenyl)pyridin-3-yl)methyl)acrylamide] | < 1000 | < 1000 | – | < 1000
13 | C=CC(=O)NCc1ncc(-c2ccc(F)cc2)cc1-c1ccn(C)n1 [compound 201, N-((5-(4-fluorophenyl)-3-(1-methyl-1H-pyrazol-3-yl)pyridin-2-yl)methyl)acrylamide] | < 1000 | < 1000 | – | < 1000
14 | C=CC(=O)NCc1ncc(-c2ccc(F)cc2)cc1-c1ccn(C2CC2)n1 [compound 202, N-((3-(1-cyclopropyl-1H-pyrazol-3-yl)-5-(4-fluorophenyl)pyridin-2-yl)methyl)acrylamide] | < 1000 | < 1000 | – | < 1000
15 | C=CC(=O)NCc1ncc(-c2ccc(F)cc2)cc1-c1ccn(C(F)F)n1 [compound 203, N-((3-(1-(difluoromethyl)-1H-pyrazol-3-yl)-5-(4-fluorophenyl)pyridin-2-yl)methyl)acrylamide] | < 1000 | < 1000 | – | < 1000
16 | C=CC(=O)NCc1cnc(-c2ccc(F)cc2)cc1-c1ccn(C)n1 [compound 205, N-((6-(4-fluorophenyl)-4-(1-methyl-1H-pyrazol-3-yl)pyridin-3-yl)methyl)acrylamide] | < 1000 | < 1000 | – | < 1000
17 | C=CC(=O)NCc1cnc(-c2ccc(F)cc2)cc1-c1ccn(C2CC2)n1 [compound 206, N-((4-(1-cyclopropyl-1H-pyrazol-3-yl)-6-(4-fluorophenyl)pyridin-3-yl)methyl)acrylamide] | < 1000 | < 1000 | – | < 1000
18 | C=CC(=O)NCc1cnc(-c2ccc(F)cc2)cc1-c1ccn(C(F)F)n1 [compound 207, N-((4-(1-(difluoromethyl)-1H-pyrazol-3-yl)-6-(4-fluorophenyl)pyridin-3-yl)methyl)acrylamide] | < 1000 | < 1000 | – | < 1000
19 | C=CC(=O)NCc1cnc(-c2cccc(F)c2)cc1-c1ccn(C(F)F)n1 [compound 211, N-((4-(1-(difluoromethyl)-1H-pyrazol-3-yl)-6-(3-fluorophenyl)pyridin-3-yl)methyl)acrylamide] | < 1000 | < 1000 | – | 1000 to 10000
20 | C=CC(=O)NCc1cnc(-c2cccc(Cl)c2)cc1-c1ccn(C(F)F)n1 [compound 213, N-((6-(3-chlorophenyl)-4-(1-(difluoromethyl)-1H-pyrazol-3-yl)pyridin-3-yl)methyl)acrylamide] | < 1000 | < 1000 | – | 1000 to 10000
21 | C=CC(=O)NCc1cnc(-c2cccc(C(F)(F)F)c2)cc1-c1ccn(C(F)F)n1 [compound 215, N-((4-(1-(difluoromethyl)-1H-pyrazol-3-yl)-6-(3-(trifluoromethyl)phenyl)pyridin-3-yl)methyl)acrylamide] | < 1000 | < 1000 | – | 1000 to 10000
22 | C=CC(=O)NCc1cnc(N2CCC(F)(F)CC2)cc1-c1ccn(C(F)F)n1 [compound 221, N-((4-(1-(difluoromethyl)-1H-pyrazol-3-yl)-6-(4,4-difluoropiperidin-1-yl)pyridin-3-yl)methyl)acrylamide] | < 1000 | < 1000 | – | 1000 to 10000
23 | C=CC(=O)NCc1cc(-c2ccc(F)cc2)cc(-c2cnn(C(F)F)c2)n1 [compound 227, N-((6-(1-(difluoromethyl)-1H-pyrazol-4-yl)-4-(4-fluorophenyl)pyridin-2-yl)methyl)acrylamide] | < 1000 | < 1000 | – | > 10000
24 | C=CC(=O)NCc1cnc(-c2ccc(F)cc2)cc1-n1ccc(C)n1 [compound 240, N-((6-(4-fluorophenyl)-4-(3-methyl-1H-pyrazol-1-yl)pyridin-3-yl)methyl)acrylamide] | < 1000 | < 1000 | – | < 1000
25 | C=CC(=O)NCc1ccc(-c2ccc(F)cc2)cc1-n1ccc(C)n1 [compound 241, N-((4′-fluoro-3-(3-methyl-1H-pyrazol-1-yl)-[1,1′-biphenyl]-4-yl)methyl)acrylamide] | < 1000 | < 1000 | – | 1000 to 10000
26 | C=CC(=O)NCc1cnc(-c2ccc(F)cc2)cc1-n1cc(C)cn1 [compound 243, N-((6-(4-fluorophenyl)-4-(4-methyl-1H-pyrazol-1-yl)pyridin-3-yl)methyl)acrylamide] | < 1000 | < 1000 | – | 1000 to 10000
27 | C=CC(=O)NCc1cnc(-c2ccc(F)cc2)cc1-n1ncc(C)n1 [compound 244, N-((6-(4-fluorophenyl)-4-(4-methyl-2H-1,2,3-triazol-2-yl)pyridin-3-yl)methyl)acrylamide] | < 1000 | < 1000 | – | < 1000
28 | C=CC(=O)NCc1cnc(-c2ccc(F)cc2)nc1-c1ccn(C(F)F)n1 [compound 254, N-((4-(1-(difluoromethyl)-1H-pyrazol-3-yl)-2-(4-fluorophenyl)pyrimidin-5-yl)methyl)acrylamide] | < 1000 | < 1000 | – | < 1000
